In ChEMBL document CHEMBL5131561, “Modified Benzofuran-carboxamide Compounds as Glucosylceramide Synthase Inhibitors for Treating Diseases” (ACS Med Chem Lett, 2022):

Target: T1, Ceramide glucosyltransferase (Homo sapiens, UniProt Q16739)
T1 sequence (Q16739 whole entry): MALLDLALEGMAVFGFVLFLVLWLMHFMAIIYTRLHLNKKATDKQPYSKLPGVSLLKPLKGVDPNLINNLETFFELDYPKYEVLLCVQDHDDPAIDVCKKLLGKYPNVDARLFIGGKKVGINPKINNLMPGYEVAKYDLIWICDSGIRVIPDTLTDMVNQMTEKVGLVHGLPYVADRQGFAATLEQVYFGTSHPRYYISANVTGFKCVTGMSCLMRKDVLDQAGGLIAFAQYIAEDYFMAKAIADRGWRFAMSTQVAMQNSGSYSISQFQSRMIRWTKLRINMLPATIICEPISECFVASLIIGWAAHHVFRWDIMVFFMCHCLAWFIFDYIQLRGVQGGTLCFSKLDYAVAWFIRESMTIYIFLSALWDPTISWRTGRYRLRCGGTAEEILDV
Assay: Inhibition of GCS in human A-375 cells using C6-ceramide and UDP-glucose as substrate preincubated for 30 mins followed by substrate addition measured after 20 hrs by UDP-Glo glucosylceramide synthase based luminometer analysis
Type: cell-based

Question: With `N#Cc1ccc(Cl)c(-c2cccc3cc(C(=O)N[C@H]4CC[C@@H](O)C4)oc23)c1` as the molecule, how does the EC50 read?
Answer: Its EC50 is 0.047 nM.
